Here are results for 90 compounds from a melting point compilation (Tetko et al.; mined from patent text by program, amines drawn as free bases though some values may be those of a salt).

As usually defined, the melting point is the temperature of the solid-liquid transition.

Molecules are shown by their SMILES.

Regarding `CCCCCCCC(O)CNCCCNCC(O)CCCCCCC` (stereo not given), the melting point fell in the range of 107 to 109 °C.
Compound `O=Cc1c2cccc(Cl)c2cc2c(Cl)cccc12` had a melting point of 218 to 220 °C.
`COC1C(c2ccccc2)=C(c2ccc(S(C)(=O)=O)cc2)C1(C)C` (stereo not given) gave a melting point of 130 to 132 °C.
In the case of `CC1(c2ccc([N+](=O)[O-])cc2)OCCO1` it was 69 to 71 °C; in that of `COc1c(Br)ccc2oc(COc3ccc(-c4ccc(S(=O)(=O)NC(C(=O)O)C(C)C)cc4)cc3)c(C)c12` (stereo not given), 198 to 200 °C; in that of `N=C(NCc1cccnc1)N[N+](=O)[O-]`, 185 to 190 °C.
In the case of `CSc1nc(NCCC(C)C)c2ccnc-2[nH]1` it was 157 to 158 °C.
With `CCOC(=O)c1nc(N)sc1-c1nc2ccc(Cl)cn2c1C`, the melting point was in the range of 217 to 219 °C.
In the case of `Cc1nc2cccc3n(CC4CCN(S(=O)(=O)C(F)(F)F)CC4)c(=O)c1n23` it was 150 to 152 °C; in that of `C=CCNc1nc(NCC=C)c2scc(Br)c2n1`, 87 to 88 °C.
Compound `CC(C)(C)NC(=O)NC(C)(C)C#N` showed a melting point of 204 to 205 °C.
As for `CC1(C)C2CC[C@]1(C)C(=O)C(C(=O)Nc1ccc(F)c(Cl)c1)C2=O` (stereo not given in full), the figure is 87 to 89 °C; as for `CN1CCc2nc3ccc(Cl)cc3c(Oc3ccccc3)c2C1`, 182 to 184 °C; as for `CCOc1cc(OC)c(C(=O)C=Cc2ccc(OC)cc2)c(OP(=O)(O)O)c1`, 85 to 88 °C.
As to `Nc1ncc(-c2ccccc2)nc1SC1CCCC1`, the melting point is 92 to 94 °C.
`CCC1=C(C(=O)OC)C(c2ccc(C)cc2)C(C#N)=C(CC(C)(C)C)N1` (stereo not given) registered a melting point of 126 °C.
In the case of `CCCCCCCCCCCCCCCCC[C@@H]1OC[C@@H](COC(=O)CCCCCOS(=O)(=O)c2ccc(C)cc2)O1` (relative stereo) it was 41.9 to 42.7 °C.
Consider `NNC(=O)c1cn(C2CCN(Cc3ccccc3)C2)nn1` (stereo not given), for which the melting point worked out at 123 °C.
The compound `Cc1cc(O)c(Oc2ccccc2C#N)cc1[N+](=O)[O-]` registered a melting point of 157 to 159 °C.
As to `CC(C)c1cc2ncnn2nc1SCCCCl`, the melting point is 82 to 83 °C.
Turning to `CS(=O)(=O)OCCOCCOC(=O)Cc1ccccc1Nc1c(Cl)cccc1Cl`, the melting point was found to be 87 °C.
In the case of `CON=C1C=C(NC(=O)N(N)CCO)C(Cl)=C(C)C1Cl` (stereo not given) it was 152 to 156 °C; in that of `O=C(NC1CCN(Cc2ccccc2)CC1)c1ccc(NCc2ccnc3ccccc23)cc1`, 184 to 188 °C; in that of `O=C1NC(=O)c2c1c(-c1c(Cl)cccc1Cl)cc1c2c2cc(O)ccc2n1CCCBr`, 273 to 276 °C.
In the case of `CC(C)(C)OC(=O)C(Nc1ccccc1)c1ccc(Cl)cc1` (racemic) it was 98 °C; in that of `CCc1nn(CC(=N)NO)c(CC)c1Oc1cc(Cl)cc(Cl)c1`, 128 to 130 °C.
As for `CCOC(=O)c1cn(CCF)c2nc(S(=O)(=O)CC)c(F)cc2c1=O`, the figure is 176 to 178 °C; as for `O=S1CCON=C1c1nnc(-c2cccc(Cl)c2)o1` (stereo not given), 208 to 210 °C.
Compound `CC(=CC(=O)O)c1ccc(-c2ccc(F)cc2)cc1` displayed a melting point of 58 to 60 °C.
As for `O=C1CCN2C(=O)OCc3cccc1c32`, the figure is 130 to 131 °C; as for `COc1ccc2c(c1)CCC1C3CC4OCCOC4C3(C)CCC21C` (stereo not given), 115 °C.
As for `Cc1c(CO)cccc1NC(=O)CN1C[C@@H](C)N(c2ncnc3sccc23)[C@@H](C)C1`, the figure is 203 to 204 °C; as for `CCN(C(=O)C1CCC1)c1cccc(-c2ccc3nnc(C)n3n2)c1`, 157 to 159 °C.
Turning to `COc1ccc2c(c1)C(=O)C(Cc1cccc(N)c1)CC2` (stereo not given), the melting point lay in the range of 159 to 161 °C.
As for `Cc1csc(-c2nnc(NC(C)c3ccccc3)c3ccccc23)c1` (stereo not given), the figure is 118 to 121 °C.
As for `CC1(C)Oc2ccc(C#N)cc2[C@@H](NC(=O)Nc2ccc3c(c2)CNC3)[C@@H]1O`, the figure is 215 to 217 °C; as for `COc1ccc(N2CCN(CCc3ccc4[nH]c(=O)oc4c3)CC2)c2ccccc12`, 200 °C.
In the case of `C[C@H](Nc1nc(Cl)nc(Cl)n1)c1ccccc1` it was 146 to 147 °C; in that of `CC(C)(C#N)c1cc(C#N)cc(Cn2ccnc2)c1`, 89 to 92 °C.
`CCN(Cc1ccc(OC(C)(C)C(=O)O)c(C)c1)c1cc(-c2ccc(Cl)cc2)nn1C` yielded a melting point of 208 °C.
In the case of `COC(=O)c1cnc2c3cc(NC(=O)CCC4CCCC4)ccc3ncn2c1=O` it was 244 to 247 °C; in that of `O=C(O)CC1(CNC(=O)OC(OC(=O)c2ccccc2)c2ccccc2)CCCCC1` (stereo not given), 75.5 to 76 °C.
As for `CCOC(=O)C1=C(C)Nc2nc(N3CCOCC3)nc(N3CCOCC3)c2C1c1cccc(C#N)c1` (stereo not given), the melting point turned out to be 210 °C.
In turn, `COc1ccc(NN=C(Sc2ccc(CF)cc2)C(C)=O)cc1` had a melting point of 103 to 104 °C.
As to `Cc1nc(-c2cc(Cc3ccccc3)no2)sc1C(=O)NCc1ccccc1`, the melting point lay in the range of 103 to 104 °C.
In the case of `CC(C)c1ccc(C2(OC(=O)C(C)(C)C)C(=O)c3ccccc3C2=O)c(OC(=O)C(C)(C)C)c1` it was 121 to 124 °C; in that of `c1ccc(OCc2ccc3ccccc3n2)cc1`, 79.5 to 80.5 °C; in that of `Cc1oc(C=Cc2cccc(C(F)(F)F)c2)nc1CO`, 134 to 135 °C.
In the case of `CC(C)C(=O)c1ccc(OCc2ccc(CNC(=O)c3cn(C)cn3)cc2)c(C(F)(F)F)c1O` it was 165 °C.
`CCC(CC)Nc1nc(C)nc(N2CCc3cc(OC)cc(Cl)c32)c1C#N` came in with a melting point of 192 to 194 °C.
In the case of `O=C(O)C1CCCc2c1ccc1c2OCO1` (stereo not given) it was 225 to 257 °C.
In the case of `CCOC(=O)c1cc2cc(N(CC)C(C)=O)ccc2[nH]1` it was 149 to 150 °C; in that of `CC(=O)OC1CSC(Oc2cccnc2CN(C)C)C(OC(C)=O)C1OC(C)=O` (stereo not given), 105 °C.
The compound `CC(C)S(=O)(=O)n1cc(-c2ccc(Oc3ccccc3)cc2)c2c(N)ncnc21` showed a melting point of 162 °C.
In the case of `Cc1cc(C)c(OC(=O)NC2CC2c2ccc(-c3ncn(-c4ccc(OC(F)(F)F)cc4)n3)cc2)c(C)c1` (stereo not given) it was 199 to 202 °C.
In the case of `O=C(O)CCCN1CCN(Cc2ccc3c(c2)-c2[nH]nc(-c4ccsc4)c2C3)CC1` it was 195 to 198 °C; in that of `CC1(C)NCCc2ccccc2C1c1ccccc1` (stereo not given), 99 to 100 °C.
As for `CC12CCC3C(CC(O)C4(O)CC(O)CCC34C)C1CCC2=O` (stereo not given), the figure is 304 to 306 °C; as for `Nc1ccc2oc3c(c2c1)CCC3`, 86.5 to 88.5 °C.
Compound `COc1cc(NC(=O)/C=C/c2ccc(C(C)(C)C)cc2)ccc1O` had a melting point of 203 to 204 °C.
In the case of `CCOC(=O)c1cnc2n(c1=O)CCc1ccccc1-2` it was 117 to 125 °C; in that of `O=c1oc2ncccc2n1CCCBr`, 62 to 63 °C; in that of `CCOC(=O)c1c(SC)nc(C2CC2)n1Cc1ccc(-c2ccccc2S(=O)(=O)NC#N)cc1`, above 260 °C.
For the compound `O=C1NCc2cc(C3CC3)sc21`, the melting point was in the range of 109 to 110 °C.
In turn, `CN(NC1=CC(=O)NCC1)c1ccccc1` showed a melting point of 180 to 182 °C.
In the case of `CC(C)c1cccc(C(C)C)c1NC(=O)CO` it was 164 to 166 °C.
`Cn1c(CO)nc([N+](=O)[O-])c1C#N` gave a melting point of 122 to 124 °C.
Regarding `CC(C)CC(CO)NC(=O)C(Cc1cn(NC(=O)OCc2ccccc2)cn1)NC(=O)CCCc1ccccc1` (single isomer, unassigned; (-)), the melting point lay in the range of 178 to 180 °C.
As for `NC(=NO)c1c(F)cccc1Cl`, the figure is 115 to 120 °C; as for `CCOC(=O)C1=C[C@H](NC(=O)OC(C)(C)C)[C@@H](NC(C)=O)[C@@H]2OC(C)(C)O[C@H]12`, 174 to 175 °C.
In the case of `COc1ccc(-c2ncc3n2CNc2ccccc2-3)cc1`, the melting point is 190 to 191 °C.
For the compound `O=C(CN1C(=O)c2ccccc2S1(=O)=O)OCCO`, the melting point was in the range of 125 to 126 °C.
`CC(C)c1nc(C(C)C)c(CSc2cccc(F)c2)c(-c2ccc(F)cc2)c1CO` gave a melting point of 99 to 100 °C.
`O=C(O)c1cc2c(-c3ccncc3)nccc2[nH]c1=O` returned a melting point above 300 °C.
Regarding `NS(=O)(=O)CCCCCCl`, the melting point is 62 °C.
As for `COc1ccc2c(c1)c(C(=O)C(=O)NC1=CC(=O)OC1)cn2Cc1ccc(Cl)cc1`, the figure is 238 to 240 °C.
In turn, `O=C(N[C@H]1CCN(C(=O)c2cc(C(F)(F)F)cc(C(F)(F)F)c2)[C@H](Cc2ccc(Cl)cc2)C1)c1cc(=O)c2ccccc2o1` yielded a melting point of 169 to 170 °C.
As for `Cc1c(S(=O)c2cc(Cl)c(Cl)cc2Cl)cc(C(C)(C)C)c(O)c1C(=O)Nc1ccc([N+](=O)[O-])cc1Cl` (stereo not given), the figure is 245 to 246 °C.
`CC(C)Sc1c(C(=O)O)oc(Br)c1Br`: the melting point lay in the range of 130 to 131 °C.
In turn, `COc1ccc(-c2c(Cl)c(CN3CCCC3=O)nc3sc4cnccc4c23)cc1OC` registered a melting point of 228 to 230 °C.
Regarding `Cn1ccc2cc(N3Cc4c(cccc4[N+](=O)[O-])C3=O)ccc21`, the melting point fell in the range of 267 to 271 °C.
The compound `ClC1=Nc2ccccc2Oc2cscc21` registered a melting point of 215 to 217 °C.
Regarding `COc1ccc2sc(Cc3ccc(Cl)cc3)nc2c1`, the melting point is 83 to 85 °C.
Compound `O=c1oc(-c2ccsc2)cc(O)c1SCc1ccccc1` showed a melting point of 150 to 151 °C.
In the case of `CCOC(=O)CSc1cc(Cl)nc(NCc2ccc(Cl)cc2)n1` it was 122 to 125 °C; in that of `COC(=O)c1ccc2cc(-c3ccc4c(c3)C(C)(C)CCC4(C)C)n(C)c2c1`, 156 °C.
In the case of `O=C1CC(c2ccccc2)Cc2c1ccn2C(=O)c1ccccc1` (stereo not given) it was 140 to 142 °C.
For `Nc1ccc(NC(=O)C=C2CC(C(=O)OCc3ccccc3)Nc3cc(Cl)cc(Cl)c32)cc1` (racemic), the melting point is 80 °C.
Regarding `C#CC(C)(O)C1CCC2C3CC=C4CC(F)CCC4(C)C3CCC21C` (stereo not given), the melting point is 213 to 214 °C.
As for `Nc1nc2c(s1)CCN(CC=Cc1cccc(Cl)c1)CC2`, the figure is 132 to 136 °C.
